In this test the test system is Mutz DCs with T-cells. The test can be described thus: T-cell activation by sensitized dendritic cells in microfluidic well-trap device (Fluo-4 calcium flux, time lapse microscopy). It counts as cell-based. Conditions: Mutz DCs sensitized with PPD, Fluo-4 labeled T-cells in the chamber, time lapse microscopy (FIG. 5). From the text: T cells are isolated from the peripheral blood mononuclear fraction by positive selection using CD3 microbeads and magnetic cell separator (Miltenyi Biotec Inc., Auburn, Calif.), following the manufacturer's instructions. The T cells are frozen in liquid nitrogen and thawed prior to use. The T-cells are labeled with a calcium sensitive fluorescent dye, Fluo-4. The present method measures the increase in calcium flux into T-cells, as they form immunological synapses with dendritic cells. For labeling, the T cells are suspended at a density of 1-2×10^6 cells/ml in the medium supplemented with the fluo4 dye diluted to a final concentration of 1 μM. The cells are incubated at 37° C. for 20 minutes, and then washed twice to remove the remaining dye in the medium. The labeled T cells are suspended in the fresh medium prior to loading in the microdevice.
The device is first primed with PBS. Any bubbles, remaining from the priming process, are removed by placing the device in a vacuum dessicater for 1-2 minutes. Once primed, the device is flushed with media. Dendritic cells (DCs) are introduced into the device from inlet 1, by means of a 2.5 μL pipette. Additional head is provided by topping off the pipette tip attached to the device to the required level. The set-screw valves may be employed to adjust the flow to allow the cells to slow down enough so they can settle. […]

Regarding `Nc1ccc(N)cc1` [PPD], the “T-cell clustering around dendritic cells and fluorescence (calcium flux) over time” value is reported as “Clustering accompanied by increase in fluorescence is observed”.

The values above are taken from patent US10209241B2, “High throughput sensitization detection devices and methods” (Rutgers, The State University of New Jersey, priority 2011, dated 2019).
